Molecules are shown by their SMILES.

As a reminder, the Kd is a measure of binding affinity in units of concentration. Low readings indicate higher affinity, high ones lower affinity.

In the experiment the target is E3 ubiquitin-protein ligase TRIM21 (UniProt P19474). The experiment in a line: Detection of SPR Binding Assays (Surface Plasmon Resonance Binding Assay) of TRIM21 Compounds. How it is done: The protein fixation buffer, the running buffer A and the running buffer B were prepared and filtered through a […] membrane prior to use. TRIM21 Protein FixationThe running buffer A was used as the protein fixation buffer. The protein fixation buffer and the TRIM21 protein were mixed to prepare a 40.0 µg/mL mixed solution.
Sequence of E3 ubiquitin-protein ligase TRIM21 (P19474 whole entry): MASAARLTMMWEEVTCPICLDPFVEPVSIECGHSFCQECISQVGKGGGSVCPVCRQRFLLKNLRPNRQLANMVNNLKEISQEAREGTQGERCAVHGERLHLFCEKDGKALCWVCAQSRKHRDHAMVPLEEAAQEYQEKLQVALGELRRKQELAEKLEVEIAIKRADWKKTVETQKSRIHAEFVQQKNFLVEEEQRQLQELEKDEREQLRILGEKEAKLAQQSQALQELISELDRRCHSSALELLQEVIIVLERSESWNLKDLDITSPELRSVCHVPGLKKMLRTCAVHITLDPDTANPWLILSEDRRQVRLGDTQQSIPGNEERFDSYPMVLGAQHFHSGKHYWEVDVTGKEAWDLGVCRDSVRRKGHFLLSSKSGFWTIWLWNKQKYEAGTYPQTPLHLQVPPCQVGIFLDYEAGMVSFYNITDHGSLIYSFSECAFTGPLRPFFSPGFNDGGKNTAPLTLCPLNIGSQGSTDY

In the case of `CN(CC1CCCCC1)C(=O)c1ccc(-c2cccc3cc[nH]c23)cc1S(C)(=O)=O` [US20250388560, Compound 51], the Kd was greater than 10 µM.
The molecule `COc1cc(F)ccc1-c1ccc(C(=O)N(C)Cc2cc[nH]c(=O)c2)c(S(C)(=O)=O)c1` [US20250388560, Compound 57] registered a Kd of less than 0.01 µM.
With `CSc1ccccc1-c1ccc(C(=O)N(C)CCN2CCOCC2)c(S(C)(=O)=O)c1` [US20250388560, Compound 21], the Kd is greater than 10 µM.
In the case of `CSc1ccccc1-c1ccc(C(=O)N(C)CCN2CCCCC2)c(S(C)(=O)=O)c1` [US20250388560, Compound 22] it was greater than 10 µM; in that of `CN(CC1CCCCC1)C(=O)c1ccc(-c2cccc3[nH]ccc23)cc1S(C)(=O)=O` [US20250388560, Compound 50], greater than 10 µM.
For `CSc1cc(F)ccc1-c1ccc(C(=O)N(C)Cc2cc[nH]c(=O)c2)c(S(C)(=O)=O)c1` [US20250388560, Compound 56], the Kd is less than 0.01 µM.
Molecule `CSc1cc(F)ccc1-c1ccc(C(=O)N(C)CC2CCOCC2)c(S(C)(=O)=O)c1` [US20250388560, Compound 55] yielded a Kd of less than 0.01 µM.
Turning to `CN(CC1CCCCC1)C(=O)c1ccc(-c2cccc3occc23)cc1S(C)(=O)=O` [US20250388560, Compound 48], the Kd is greater than 10 µM.
`CN(CC1CCCCC1)C(=O)c1ccc(-c2ccccc2)cc1S(C)(=O)=O` [US20250388560, Compound 58] showed a Kd greater than 10 µM.
Molecule `Cc1cccc(-c2ccc(C(=O)N(C)CC3CCCCC3)c(S(C)(=O)=O)c2)c1` [US20250388560, Compound 44] yielded a Kd greater than 10 µM.

The values above are taken from BindingDB's records for patent US20250388560 (Hitgen, 2025).
